Tests used:
mGAT3 = mGAT3 (Mus musculus (Mouse), UniProt P31649); assay: [3H]GABA uptake inhibition, mGAT3 in HEK293 cells; assay type: cell-based; conditions: for percentage of [3H]GABA reuptake retained, mGAT3: inhibitor at 100 μM, remaining reuptake
Protocol: (§1) Exemplary compounds according to the invention were screened at the Ludwig-Maximilian University of Munich to determine the inhibitory ability towards four mouse GAT transporters (mGAT1-mGAT4). […] The biological material was stably transfected human embryonic kidney HEK293 cells, expressing genes to the appropriate transporters. The generated radioactivity was measured with a liquid scintillation counter. […] These determinations were made according to the procedure described in detail in A. Kragler, G. Höfner, K. T. Wanner, Novel parent structures for inhibitors of the murine GABA transporters mGAT3 and mGAT4, Eur. J. Pharmacol. 519 (2005) 43-47.

mGAT4 = mGAT4 (Mus musculus (Mouse), UniProt P31650); assay: [3H]GABA uptake inhibition, mGAT4 in HEK293 cells; assay type: cell-based; conditions: for pIC50 (+/−SEM) mGAT4 / IC50: GABA reuptake; for percentage of [3H]GABA reuptake retained, mGAT4: inhibitor at 100 μM, remaining reuptake; for IC50: read-out: pIC50 (+/−SEM) mGAT4 (converted)
mGAT4, sequence (P31650 whole entry): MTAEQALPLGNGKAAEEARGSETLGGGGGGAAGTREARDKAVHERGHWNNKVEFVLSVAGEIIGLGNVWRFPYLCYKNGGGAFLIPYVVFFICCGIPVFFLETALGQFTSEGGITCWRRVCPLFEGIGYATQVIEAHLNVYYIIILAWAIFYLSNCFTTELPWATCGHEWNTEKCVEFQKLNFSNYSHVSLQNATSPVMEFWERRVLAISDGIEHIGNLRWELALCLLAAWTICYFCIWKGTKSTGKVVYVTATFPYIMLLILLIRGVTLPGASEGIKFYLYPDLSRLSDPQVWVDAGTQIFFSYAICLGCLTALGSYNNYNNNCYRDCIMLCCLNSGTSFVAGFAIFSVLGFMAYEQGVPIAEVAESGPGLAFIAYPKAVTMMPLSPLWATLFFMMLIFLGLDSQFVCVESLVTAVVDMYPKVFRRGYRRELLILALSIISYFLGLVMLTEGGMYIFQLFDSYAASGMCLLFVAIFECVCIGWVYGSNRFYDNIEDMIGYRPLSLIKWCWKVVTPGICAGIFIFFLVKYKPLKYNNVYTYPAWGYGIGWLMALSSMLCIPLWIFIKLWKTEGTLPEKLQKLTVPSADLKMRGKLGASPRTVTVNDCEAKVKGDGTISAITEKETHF
Protocol: as §1

[1] = target: Recombinant human Aβ1-42 peptide (Homo sapiens (Human), UniProt P05067); assay: Thioflavin T test, antiaggregation activity against beta-amyloid; assay type: biochemical; conditions: 10 μM test compound, 1.5 μM Aβ1-42; read-out: inh. Aβ aggr. % inh
Recombinant human Aβ1-42 peptide, sequence (P05067 672-713): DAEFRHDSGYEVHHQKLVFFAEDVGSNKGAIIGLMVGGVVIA
Protocol: The thioflavin T test [Levine III] was used for the determinations. Recombinant human Aβ1-42 peptide (HFIP pretreated, Merck Millipore, Darmstadt, Germany) was dissolved in DMSO to form a 75 μM stock solution. The solution was further diluted in HEPES buffer (150 mM HEPES, pH 7.4, 150 mM NaCl) to a concentration of 7.5 μM. Then, the Aβ1-42 solution was added to the test compounds (black 96-well plates were used) and diluted with thioflavin T solution (10 μM final concentration). The final mixture contained 1.5 μM Aβ1-42, 10 μM test compound, and 3% of DMSO. Fluorescence was measured every 300 s (excitation wavelength was 440 nm, emission wavelength was 490 nm) with continuous mixing between measurements. A multifunction microplate reader (Synergy H4; BioTek Instruments, Inc., Winooski, VT, USA) was used to measure the fluorescence. Fluorescence started increasing after approximately 4 hours, plateaued after 20 hours and remained virtually unchanged for the next 28 hours of incubation. The plateau-phase fluorescence intensities (in the presence and absence of test compounds) were averaged and the mean fluorescence values for the respective wells at t=0 h were subtracted from them. […] IC50 values were calculated using non-linear regression (GraphPad Prism 5 [GraphPad Software, San Diego, CA, USA 5.00]) for the percentage of aggregation inhibition against the inhibitor concentration used.

[2] = target: human plasma butyrylcholinesterase (hBuChE) (Homo sapiens (Human), UniProt P06276); assay: Ellman's test, inhibition of human plasma butyrylcholinesterase; assay type: biochemical; conditions: for inhibition at 1 µM: 1 μM inhibitor concentration, read-out: hBuChE % inh
human plasma butyrylcholinesterase (hBuChE), sequence (P06276 29-602): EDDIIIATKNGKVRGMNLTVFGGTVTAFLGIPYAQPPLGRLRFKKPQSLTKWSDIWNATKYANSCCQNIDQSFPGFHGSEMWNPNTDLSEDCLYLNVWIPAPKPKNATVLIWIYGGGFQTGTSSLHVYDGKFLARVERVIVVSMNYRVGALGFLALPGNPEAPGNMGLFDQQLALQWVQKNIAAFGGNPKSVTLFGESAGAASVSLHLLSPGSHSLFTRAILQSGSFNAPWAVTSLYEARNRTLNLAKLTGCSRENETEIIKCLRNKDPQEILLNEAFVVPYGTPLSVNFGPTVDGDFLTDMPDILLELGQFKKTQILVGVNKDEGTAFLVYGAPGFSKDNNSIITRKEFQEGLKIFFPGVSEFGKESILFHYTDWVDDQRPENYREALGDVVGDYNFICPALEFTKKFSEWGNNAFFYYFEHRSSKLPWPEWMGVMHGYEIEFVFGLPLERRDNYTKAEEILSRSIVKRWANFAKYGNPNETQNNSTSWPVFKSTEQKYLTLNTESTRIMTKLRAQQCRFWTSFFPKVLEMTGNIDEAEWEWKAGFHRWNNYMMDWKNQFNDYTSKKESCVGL
Protocol: (§2) The spectrophotometric Ellman's test [Ellman et al.] modified for assays in 96-well plates was used to test the activity. Reagents: 5,5′-dithiobis-(2-nitrobenzoic acid) (DTNB), eqBuChE and butyrylthiocholine iodide (BTC) were purchased from Sigma-Aldrich (Steinheim, Germany). hBuChE was from Vivonics (Bedford, MA, USA). The enzymes were prepared by dissolving in demineralized water to a concentration of 0.384 U/ml. Stock solutions of test compounds were prepared by dissolving in DMSO to a concentration of 0.0034 M. They were then diluted with water to obtain the appropriate concentrations in the wells. In the first step of the test, 25 μl of test compound (or DMSO/water mixture at the appropriate ratio for blank samples) was incubated in 0.1 M phosphate buffer (200 μl, pH=8.0) with DTNB (20 μl; 0.0025M) and with the appropriate enzyme (20 μl; eqBuChE or hBuChE) at 25° C. (animal enzyme) or 36° C. (human enzyme). After a 5 minutes incubation period, 20 μl of BTC solution (0.00375 M) was added. After another 5 minutes, the changes in absorbance of the solutions were measured at 412 nm using a multifunctional microplate reader (EnSpire Multimode; PerkinElmer; Waltham, MA, USA). All compounds were tested at a screening concentration of 10 μM (eqBuChE) or 1 μM (hBuChE). The percentage of enzyme inhibition was calculated from the equation 100-(S/B)×100, where S and B were the enzymatic activity in the test sample well and in the well without sample, respectively. […] All reactions were performed in triplicate. IC50 values were calculated using non-linear regression (GraphPad Prism 5 [GraphPad Software, San Diego, CA, USA 5.00]) for the percentage of enzyme inhibition against the inhibitor concentration used. Tacrine and donepezil were used as reference compounds.

[3] = target: horse plasma butyrylcholinesterase (eqBuChE) (Equus caballus (Horse), UniProt P81908); assay: Ellman's test, inhibition of horse plasma butyrylcholinesterase; assay type: biochemical; conditions: for inhibition at 10 µM: 10 μM inhibitor concentration, read-out: eqBuChE percent inhibition of enzyme
horse plasma butyrylcholinesterase (eqBuChE), sequence (P81908 whole entry): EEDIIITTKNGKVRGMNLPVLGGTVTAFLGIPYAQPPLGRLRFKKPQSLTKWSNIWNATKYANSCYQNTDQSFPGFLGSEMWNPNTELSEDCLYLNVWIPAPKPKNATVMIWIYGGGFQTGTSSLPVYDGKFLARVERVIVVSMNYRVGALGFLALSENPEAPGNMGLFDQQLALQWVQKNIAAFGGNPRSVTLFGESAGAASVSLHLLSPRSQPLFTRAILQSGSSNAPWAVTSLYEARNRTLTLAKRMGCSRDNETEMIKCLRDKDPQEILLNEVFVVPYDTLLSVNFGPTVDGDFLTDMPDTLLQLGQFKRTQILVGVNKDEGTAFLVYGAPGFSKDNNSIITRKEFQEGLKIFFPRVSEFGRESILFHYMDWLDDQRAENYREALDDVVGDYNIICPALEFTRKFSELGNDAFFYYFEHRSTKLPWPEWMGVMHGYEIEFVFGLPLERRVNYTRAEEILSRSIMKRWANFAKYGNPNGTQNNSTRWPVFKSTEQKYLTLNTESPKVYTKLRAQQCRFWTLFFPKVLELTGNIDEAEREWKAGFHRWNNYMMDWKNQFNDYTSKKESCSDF
Protocol: as §2

mGAT1 = mGAT1 (Mus musculus (Mouse), UniProt P31648); assay: [3H]GABA uptake inhibition, mGAT1 in HEK293 cells; assay type: cell-based; conditions: for percentage of [3H]GABA reuptake retained, mGAT1: inhibitor at 100 μM, remaining reuptake
Protocol: as §1

[4] = target: human recombinant beta-secretase (hBACE1) (Homo sapiens (Human), UniProt P56817); assay: FRET assay, inhibition of human recombinant beta-secretase; assay type: biochemical; conditions: for IC50: read-out: hBACE-1 IC50; for inhibition at 50 µM: 50 μM inhibitor concentration, read-out: hBACE-1 % inh
human recombinant beta-secretase (hBACE1), sequence (P56817 46-501): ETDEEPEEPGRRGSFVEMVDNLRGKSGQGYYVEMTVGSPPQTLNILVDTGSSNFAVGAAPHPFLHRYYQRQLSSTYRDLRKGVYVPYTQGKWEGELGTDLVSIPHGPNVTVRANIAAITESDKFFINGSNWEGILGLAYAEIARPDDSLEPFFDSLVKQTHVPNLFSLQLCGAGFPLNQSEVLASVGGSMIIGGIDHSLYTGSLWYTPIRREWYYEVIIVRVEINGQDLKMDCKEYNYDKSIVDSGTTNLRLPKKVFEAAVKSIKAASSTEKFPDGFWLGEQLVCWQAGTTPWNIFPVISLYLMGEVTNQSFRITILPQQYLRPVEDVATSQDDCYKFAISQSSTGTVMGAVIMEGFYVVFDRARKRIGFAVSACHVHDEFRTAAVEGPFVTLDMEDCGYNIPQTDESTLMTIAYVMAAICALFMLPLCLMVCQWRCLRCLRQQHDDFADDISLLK
Protocol: The FRET assay [Vassar, et al.] was used to test activity using 384-well black plates and a microplate reader (EnSpire Multimode; PerkinElmer; Waltham, MA, USA). The test was purchased from Life Technologies Polska Sp. z o.o. (Warsaw, Poland). […] Stock solutions of test compounds were prepared in DMSO and then further diluted with assay buffer (50 mM sodium acetate; pH 4.5) to the appropriate concentrations in the wells. In the first step of the test, 10 μl of the substrate (Rh-[…] quencher, based on the so-called Swedish APP mutation) was mixed with 10 μl of the test compound (or assay buffer; for blank sample). The enzyme reaction was initiated by adding 10 μl of enzyme (hBACE1, 1 U/ml). The reaction mixture was incubated at 25° C. for 60 minutes, then 10 μL of Stop solution (2.5 M sodium acetate) was added. After stopping the reaction, fluorescence was measured at 576 nm. The percentage of enzyme inhibition was calculated from the formula [1−(S60−S0)/(C60−C0)]×100, where S0 and S60 are the fluorescence of the test sample (containing the enzyme, substrate and test compound) at the start of the reaction and after 60 minutes, respectively, whereas C0 and C60 were analogous fluorescence intensities in the blank samples (containing enzyme, substrate and buffer). All test compounds were tested at a concentration of 50 μM in triplicate. […] A BACE1 IV inhibitor (Calbiochem, Merck; Nottingham, UK) [Stachel et al.] was used as a reference compound. […] IC50 values for all test compounds were calculated using non-linear regression (GraphPad Prism 5 [GraphPad Software, San Diego, CA, USA 5.00]) for the percentage of enzyme inhibition against the inhibitor concentration used.

mGAT2 = mGAT2 (Mus musculus (Mouse), UniProt P31651); assay: [3H]GABA uptake inhibition, mGAT2 in HEK293 cells; assay type: cell-based; conditions: for pIC50 (+/−SEM) mGAT2 / IC50: GABA reuptake; for IC50: read-out: pIC50 (+/−SEM) mGAT2 (converted); for percentage of [3H]GABA reuptake retained, mGAT2: inhibitor at 100 μM, remaining reuptake
mGAT2, sequence (P31651 whole entry): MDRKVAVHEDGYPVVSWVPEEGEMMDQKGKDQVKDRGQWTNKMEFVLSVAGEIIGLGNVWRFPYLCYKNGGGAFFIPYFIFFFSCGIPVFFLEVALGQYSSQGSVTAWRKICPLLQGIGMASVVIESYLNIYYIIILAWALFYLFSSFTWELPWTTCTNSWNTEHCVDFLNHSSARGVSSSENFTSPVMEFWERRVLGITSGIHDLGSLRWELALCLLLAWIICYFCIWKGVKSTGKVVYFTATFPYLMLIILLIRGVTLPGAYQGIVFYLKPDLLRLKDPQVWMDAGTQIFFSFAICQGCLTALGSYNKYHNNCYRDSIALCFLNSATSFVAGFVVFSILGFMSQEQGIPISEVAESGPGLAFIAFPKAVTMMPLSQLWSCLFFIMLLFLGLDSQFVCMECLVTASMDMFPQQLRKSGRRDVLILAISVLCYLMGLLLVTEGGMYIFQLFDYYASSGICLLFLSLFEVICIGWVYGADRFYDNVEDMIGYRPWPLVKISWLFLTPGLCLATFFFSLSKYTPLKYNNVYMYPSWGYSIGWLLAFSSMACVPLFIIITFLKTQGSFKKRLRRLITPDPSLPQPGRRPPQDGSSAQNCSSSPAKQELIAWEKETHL
Protocol: as §1

mGAT3, sequence (P31649 whole entry): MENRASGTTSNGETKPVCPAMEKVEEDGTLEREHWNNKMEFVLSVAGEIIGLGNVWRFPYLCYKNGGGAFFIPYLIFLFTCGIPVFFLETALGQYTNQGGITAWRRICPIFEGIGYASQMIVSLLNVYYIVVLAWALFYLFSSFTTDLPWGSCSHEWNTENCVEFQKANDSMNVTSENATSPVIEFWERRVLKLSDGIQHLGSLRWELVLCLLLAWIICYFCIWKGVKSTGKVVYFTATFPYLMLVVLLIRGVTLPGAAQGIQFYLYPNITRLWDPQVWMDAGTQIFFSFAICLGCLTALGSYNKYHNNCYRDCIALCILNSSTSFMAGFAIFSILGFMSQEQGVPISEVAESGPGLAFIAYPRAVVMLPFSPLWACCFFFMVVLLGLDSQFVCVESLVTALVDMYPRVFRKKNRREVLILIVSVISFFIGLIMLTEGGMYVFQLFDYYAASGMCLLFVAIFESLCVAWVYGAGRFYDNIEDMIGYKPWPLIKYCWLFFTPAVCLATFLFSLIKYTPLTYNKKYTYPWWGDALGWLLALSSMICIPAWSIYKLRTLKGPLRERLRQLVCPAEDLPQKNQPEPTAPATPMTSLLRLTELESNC

| Structure (SMILES) | pIC50 (+/−SEM) mGAT3 (mGAT3; GABA reuptake) | pIC50 (+/−SEM) mGAT4 (mGAT4) | inhibition at 10 µM [1] [%] | IC50 [2] [µM] | IC50 [3] [µM] | pIC50 (+/−SEM) mGAT1 (mGAT1; GABA reuptake) | IC50 [4] [µM] | pIC50 (+/−SEM) mGAT2 (mGAT2) | percentage of [3H]GABA reuptake retained, mGAT4 (mGAT4) [%] | inhibition at 1 µM [2] [%] | inhibition at 10 µM [3] [%] | percentage of [3H]GABA reuptake retained, mGAT3 (mGAT3) [%] | percentage of [3H]GABA reuptake retained, mGAT1 (mGAT1) [%] | IC50 (mGAT4) [µM] | IC50 (mGAT2) [µM] | inhibition at 50 µM [4] [%] | percentage of [3H]GABA reuptake retained, mGAT2 (mGAT2) [%] | IC50 (mGAT3; GABA reuptake, read-out: pIC50 (+/−SEM) mGAT3 (converted)) [µM] | IC50 (mGAT1; GABA reuptake, read-out: pIC50 (+/−SEM) mGAT1 (converted)) [µM] |
| --- | --- | --- | --- | --- | --- | --- | --- | --- | --- | --- | --- | --- | --- | --- | --- | --- | --- | --- | --- |
| O[C@H](CNCc1ccccc1)[C@H](Cc1ccccc1)NC1c2ccccc2-c2ccccc21 [Compound 1, (2R,3S)-3-((9H-fluoren-9-yl)amino)-1-(benzylamino)-4-phenylbutan-2-ol] | 5.15+/− 0.07 | 5.11 +/− 0.01 | 82.5 | 0.196 | 0.627 | 4.96 | 10.1 | 5.01 +/− 0.08 | – | – | – | – | – | – | – | – | – | – | – |
| CC(C)(C)c1cccc(CNC[C@@H](O)[C@H](Cc2ccccc2)NC2c3ccccc3-c3ccccc32)c1 [Compound 3, (2R,3S)-3-((9H-fluoren-9-yl)amino)-1-((3-(tert-butyl)benzyl)amino)-4-phenylbutan-2-ol] | 5.05 +/− 0.05 | – | 90.9 | – | – | 4.83 | 6.35 | 4.58 | 56 | 68 | 78.2 | – | – | – | – | – | – | – | – |
| COc1cccc(CNC[C@H](O)[C@H](Cc2ccccc2)NC2c3ccccc3-c3ccccc32)c1 [Compound 6, (2S,3S)-3-((9H-fluoren-9-yl)amino)-1-((3-methoxybenzyl)amino)-4-phenylbutan-2-ol] | – | 5.15 +/− 0.034 | 93.3 | – | 2.2 | 5.15 | 2.25 | 4.92 +/− 0.14 | – | 67.7 | – | 66 | – | – | – | – | – | – | – |
| COc1ccccc1CNC[C@H](O)[C@H](Cc1ccccc1)NC1c2ccccc2-c2ccccc21 [Compound 7, (2S,3S)-3-((9H-fluoren-9-yl)amino)-1-((2-methoxybenzyl)amino)-4-phenylbutan-2-ol] | – | 5.21 +/− 0.04 | 86.7 | 0.268 | 0.278 | 5.20 | 7.23 | 4.88 +/− 0.07 | – | – | – | 65 | – | – | – | – | – | – | – |
| O[C@@H](CNCC1CCCCC1)[C@H](Cc1ccccc1)NC1c2ccccc2-c2ccccc21 [Compound 11, (2S,3S)-3-((9H-fluoren-9-yl)amino)-1-((cyclohexylmethyl)amino)-4-phenylbutan-2-ol] | 4.94 | – | 78.6 | – | 0.955 | – | 8.6 | 4.97 | 59 | 76.5 | – | – | 54 | – | – | – | – | – | – |
| O=C(CC1c2ccccc2-c2ccccc21)N[C@@H](Cc1ccccc1)[C@@H](O)CNCc1ccccc1 [Compound 17, N-((2S,3S)-4-(benzylamino)-3-hydroxy-1-phenylbutan-2-yl)-2-(9H-fluorene-9-yl)acetamide] | 4.93 | – | 42.5 | – | 1.76 | 4.85 | 11.5 | – | – | 66.4 | – | – | – | 7.24 | 15.8 | – | – | – | – |
| CC(C)(C)c1ccc(CNC[C@H](O)[C@H](Cc2ccccc2)NC(=O)CC2c3ccccc3-c3ccccc32)cc1 [Compound 19, N-((2S,3S)-4-((4-(tert-butyl)benzyl)amino)-3-hydroxy-1-phenylbutan-2-yl)-2-(9H-fluoren-9-yl)acetamide] | 4.90 | – | 86.7 | – | 3.02 | 4.90 | – | – | – | 77.1 | – | – | – | 15.5 | – | 78.3 | 114 | – | – |
| COc1ccccc1CNC[C@H](O)[C@H](Cc1ccccc1)NC(=O)CC1c2ccccc2-c2ccccc21 [Compound 20, 2-(9H-fluorene-9-yl)-N-((2S,3S)-3-hydroxy-4-((2-methoxybenzyl)amino)-1-phenylbutan-2-yl)acetamide] | – | – | < 10 | – | 2.2 | – | – | – | – | 74.5 | – | – | – | 4.07 | 9.12 | 71.1 | – | 8.32 | 9.55 |
| C[C@H](NC[C@@H](O)[C@H](Cc1ccccc1)NC(=O)C1c2ccccc2-c2ccccc21)c1ccccc1 [Compound 22, N-((2S,3R)-3-hydroxy-1-phenyl-4-(((S)-1-phenylethyl)amino)butan-2-yl)-9H-fluorene-9-carboxamide] | – | – | < 10 | – | – | – | – | – | 69 | < 10 | 42 | 90 | 83 | – | – | 72.6 | 97 | – | – |
| C[C@H](NC[C@@H](O)[C@H](Cc1ccccc1)NC(=O)CC1c2ccccc2-c2ccccc21)c1ccccc1 [Compound 23, 2-(9H-fluoren-9-yl)-N-((2S,3R)-3-hydroxy-1-phenyl-4-(((S)-1-phenylethyl)amino)butan-2-yl)acetamide] | – | – | 59.4 | 0.558 | 8.86 | 4.73 | 7.36 | – | 61 | – | – | 59 | – | – | 14.5 | – | – | – | – |
